Series [1] can be described thus: Assay (III) ThT fibrillation assay for physical stability. It is filed as physicochemical. Put shortly: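 Freshly prepared formulations, pH-adjusted, with 1 μM ThT; four or eight replicates incubated at 37 °C under 960 rpm orbital shaking. Fluorescence (ex 444/em 485 nm) read every 20 min; […]. Peptide concentration measured by RP-HPLC before and after the run.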

In series [2] the target is T1, human calcitonin receptor (Homo sapiens, UniProt P30988).
T1 construct: expressed in transfected cells; host or cells: BHK570
T1 sequence (P30988 25-474): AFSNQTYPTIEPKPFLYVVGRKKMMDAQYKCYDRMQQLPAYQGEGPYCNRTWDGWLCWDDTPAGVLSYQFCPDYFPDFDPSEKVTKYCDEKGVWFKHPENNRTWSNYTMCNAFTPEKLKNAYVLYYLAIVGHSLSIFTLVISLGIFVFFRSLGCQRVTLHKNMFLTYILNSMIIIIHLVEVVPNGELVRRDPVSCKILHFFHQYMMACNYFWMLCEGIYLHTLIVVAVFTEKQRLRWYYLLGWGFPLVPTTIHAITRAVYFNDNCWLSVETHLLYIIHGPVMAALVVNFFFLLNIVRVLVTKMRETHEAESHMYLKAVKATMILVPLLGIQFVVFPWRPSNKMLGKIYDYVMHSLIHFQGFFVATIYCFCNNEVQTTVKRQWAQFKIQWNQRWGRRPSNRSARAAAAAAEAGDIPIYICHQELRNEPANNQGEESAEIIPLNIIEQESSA
The series can be described thus: Assay (II)a functional CRE-luciferase assay, human calcitonin receptor. Type of series: cell-based.

Series [3] has as its target T2, human amylin receptor (amylin 3(a) receptor: human calcitonin receptor + RAMP-3) (Homo sapiens, UniProt O60896+P30988).
T2 construct: expressed in transfected cells; host or cells: BHK570
T2 sequence (P30988 25-474): T1 sequence (P30988 25-474)
T2 sequence (O60896 24-148 partner): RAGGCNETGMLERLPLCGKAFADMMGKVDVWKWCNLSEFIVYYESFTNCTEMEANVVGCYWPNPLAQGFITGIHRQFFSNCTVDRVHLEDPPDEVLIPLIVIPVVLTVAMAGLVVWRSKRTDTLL
The experiment in a line: Assay (II)a functional CRE-luciferase assay, human amylin receptor. Type of series: cell-based. To be noted: Table 2; BHK amylin 3(a)-receptor/CRE-luc cells.

The nature of series [4]: Assay (IV) determination of solubility. Type of series: physicochemical. In a few lines:
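Solubility is measured across pH 3.0–8.0 by mixing a ~500 nmol/ml aqueous polypeptide stock 1:1 with 100 mM glycylglycine or bistrispropane buffers. Samples stand 18 hours at room temperature, then are centrifuged and the soluble concentration is determined by HPLC.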

The mark [5] stands for this setting: Table 7, human calcitonin (CTa) receptor.
The mark [6] stands for this setting: bistrispropane buffer, pH 6, pH 6.0, read-out: Solubility pH 6.0.
Setting [7] is: bistrispropane buffer, pH 6.5, pH 6.5, read-out: Solubility pH 6.5.
The mark [8] stands for this setting: bistrispropane buffer, pH 7, pH 7.0, read-out: Solubility pH 7.0.
Setting [9] is: bistrispropane buffer, pH 7.5, pH 7.5, read-out: Solubility pH 7.5.
The mark [10] stands for this setting: bistrispropane buffer, pH 8, pH 8.0, read-out: Solubility pH 8.0.
Where [11] appears, read: glycylglycine buffer, pH 3, pH 3.0, read-out: Solubility pH 3.0.
Where [12] appears, read: glycylglycine buffer, pH 4, pH 4.0, 18 hours at room temperature, Table 2, read-out: Solubility pH 4.0.
Where [13] appears, read: glycylglycine buffer, pH 4, pH 4.0, read-out: Solubility pH 4.0.
Setting [14] is: glycylglycine buffer, pH 5, pH 5.0, read-out: Solubility pH 5.0.
[15] abbreviates: bistrispropane buffer, pH 7, pH 7.0, 18 hours at room temperature, Table 3, read-out: Solubility pH 7.0.

In brackets after ≈: the same amount, converted by molar mass. Read-outs that look alike come from different tables or passages of the source. Starred links: 1 amine or outer side, 2 acyl side, 3 side chain; linkers in the order of their positions; H or OH if unused. Positions of bridges follow the written chain, without caps; N, C: chain ends. Residues, ends and D or L forms follow the SMILES beside them. *: point of attachment. C20 diacid = O=C(O)CCCCCCCCCCCCCCCCCCC(=O)*; γGlu = O=C(O)[C@H](CCC(=O)[*:2])N[*:1]

Regarding `CC[C@H](C)[C@H](NC(=O)[C@@H]1CCCN1C(=O)CNC(=O)[C@H](Cc1ccccc1)NC(=O)[C@H](CC(N)=O)NC(=O)[C@H](CC(N)=O)NC(=O)[C@H](CO)NC(=O)[C@H](CO)NC(=O)[C@H](Cc1c[nH]cn1)NC(=O)[C@H](Cc1c[nH]cn1)NC(=O)[C@H](CC(C)C)NC(=O)[C@H](Cc1ccccc1)NC(=O)[C@H](CCC(=O)O)NC(=O)[C@H](C)NC(=O)[C@H](CC(C)C)NC(=O)[C@H](CCCNC(=N)N)NC(=O)[C@H](CCC(N)=O)NC(=O)[C@@H](NC(=O)[C@H](C)NC(=O)[C@@H]1CSSC[C@H](NC(=O)[C@H](CCCCN)NC(=O)[C@H](Cc2c[nH]cn2)NC(=O)[C@H](Cc2c[nH]cn2)NC(=O)CC[C@H](NC(=O)CCCCCCCCCCCCCCCCCCC(=O)O)C(=O)O)C(=O)N[C@@H](CC(N)=O)C(=O)N[C@@H]([C@@H](C)O)C(=O)N[C@@H](C)C(=O)N[C@@H]([C@@H](C)O)C(=O)N1)[C@@H](C)O)C(=O)N[C@@H](CC(C)C)C(=O)N1CCC[C@H]1C(=O)N1CCC[C@H]1C(=O)N[C@H](C(=O)N[C@@H](CC(N)=O)C(=O)N[C@H](C(=O)NCC(=O)N[C@@H](CO)C(=O)N[C@@H](Cc1c[nH]cn1)C(=O)N[C@H](C(=O)N[C@@H](Cc1ccc(O)cc1)C(N)=O)[C@@H](C)O)C(C)C)[C@@H](C)O` [Example 67, N-alpha-[(S)-4-Carboxy-4-(19-carboxynonadecanoylamino)butyryl]-His-His-[Glu14,His17,His35]-pramlintide] ({C20 diacid-γGlu}-HHKCNTATCATQRLAEFLHHSSNNFGPILPPTNVGSHTY-NH2; disulfide 4-9 (inferred); C-terminus assumed), the “ThT pH 4.0 lag time” value in series [1] (ThT fibrillation assay) is over 45 h. The “ThT pH 4.0 lag time (h)” value in series [1] (ThT fibrillation assay) is reported as over 45 h. Moreover, the EC50 (in general, the concentration at which the effect is half-maximal) in series [2] (setting [5]) came to 0.115 nM; in series [3] it was 0.0965 nM. The solubility (commonly the dissolved amount per volume that the medium holds) at 18 h in series [4] (setting [6]) is over 200 µM; in series [4] (setting [7]), 166 µM (≈ 789 µg/mL); in series [4] (setting [8]), 15 µM (≈ 71.3 µg/mL); in series [4] (setting [9]), 24 µM (≈ 114 µg/mL); in series [4] (setting [10]) it was 60 µM (≈ 285 µg/mL); in series [4] (setting [11]), over 200 µM. Further, the solubility at 18 h in series [4] (setting [12]), in series [4] (setting [13]) and in series [4] (setting [14]) was over 200 µM throughout.

On to `CC[C@H](C)[C@H](NC(=O)[C@@H]1CCCN1C(=O)CNC(=O)[C@H](Cc1ccccc1)NC(=O)[C@H](CC(N)=O)NC(=O)[C@H](CCC(N)=O)NC(=O)[C@H](CO)NC(=O)[C@H](CO)NC(=O)[C@H](Cc1c[nH]cn1)NC(=O)[C@@H](NC(=O)[C@H](CC(C)C)NC(=O)[C@H](Cc1ccccc1)NC(=O)[C@H](CCC(=O)O)NC(=O)[C@H](C)NC(=O)[C@H](CC(C)C)NC(=O)[C@H](CCCNC(=N)N)NC(=O)[C@H](CCC(N)=O)NC(=O)[C@@H](NC(=O)[C@H](C)NC(=O)[C@@H]1CSSC[C@H](NC(=O)[C@H](CCC(=O)O)NC(=O)CC[C@H](NC(=O)CCCCCCCCCCCCCCCCCCC(=O)O)C(=O)O)C(=O)N[C@@H](CC(N)=O)C(=O)N[C@@H]([C@@H](C)O)C(=O)N[C@@H](C)C(=O)N[C@@H]([C@@H](C)O)C(=O)N1)[C@@H](C)O)C(C)C)C(=O)N[C@@H](CC(C)C)C(=O)N1CCC[C@H]1C(=O)N1CCC[C@H]1C(=O)N[C@H](C(=O)N[C@@H](CC(N)=O)C(=O)N[C@H](C(=O)NCC(=O)N[C@@H](CO)C(=O)N[C@@H](CCC(N)=O)C(=O)N[C@H](C(=O)N1CCC[C@H]1C(N)=O)[C@@H](C)O)C(C)C)[C@@H](C)O` [Example 138, N-alpha-[(S)-4-Carboxy-4-(19-carboxynonadecanoylamino)butyryl]-[Glu1,Glu14,Gln21,Gln35,Pro37]-pramlintide] ({C20 diacid-γGlu}-ECNTATCATQRLAEFLVHSSQNFGPILPPTNVGSQTP-NH2; disulfide 2-7), for which the “ThT pH 4.0 lag time (h)” value in series [1] (ThT fibrillation assay) is recorded as 1.3 h. Further, the concentration for a half-maximal effect (EC50) stood at 0.496 nM in series [2] (setting [5]) and 1.51 nM in series [3]. Also, the solubility at 18 h in series [4] (setting [6]), in series [4] (setting [7]), in series [4] (setting [15]), in series [4] (setting [8]), in series [4] (setting [9]) and in series [4] (setting [10]) was over 200 µM throughout. For the same compound, the solubility at 18 h in series [4] (setting [11]), in series [4] (setting [12]), in series [4] (setting [13]) and in series [4] (setting [14]) was over 200 µM each time.

Consider `CC[C@H](C)[C@H](NC(=O)[C@@H]1CCCN1C(=O)CNC(=O)[C@H](Cc1ccccc1)NC(=O)[C@H](CC(N)=O)NC(=O)[C@H](CCC(N)=O)NC(=O)[C@H](CO)NC(=O)[C@H](CO)NC(=O)[C@H](Cc1c[nH]cn1)NC(=O)[C@H](CCCNC(=N)N)NC(=O)[C@H](CC(C)C)NC(=O)[C@H](Cc1ccccc1)NC(=O)[C@H](CCC(=O)O)NC(=O)[C@H](C)NC(=O)[C@H](CC(C)C)NC(=O)[C@H](CCCNC(=N)N)NC(=O)[C@H](CCC(N)=O)NC(=O)[C@@H](NC(=O)[C@H](C)NC(=O)[C@@H]1CSSC[C@H](NC(=O)[C@H](CCC(=O)O)NC(=O)[C@H](CCCNC(=N)N)NC(=O)[C@H](CCC(=O)O)NC(=O)CC[C@H](NC(=O)CCCCCCCCCCCCCCCCCCC(=O)O)C(=O)O)C(=O)N[C@@H](CC(N)=O)C(=O)N[C@@H]([C@@H](C)O)C(=O)N[C@@H](C)C(=O)N[C@@H]([C@@H](C)O)C(=O)N1)[C@@H](C)O)C(=O)N[C@@H](CC(C)C)C(=O)N1CCC[C@H]1C(=O)N1CCC[C@H]1C(=O)N[C@H](C(=O)N[C@@H](CCC(N)=O)C(=O)N[C@H](C(=O)NCC(=O)N[C@@H](CO)C(=O)N[C@@H](CCC(N)=O)C(=O)N[C@H](C(=O)N1CCC[C@H]1C(N)=O)[C@@H](C)O)C(C)C)[C@@H](C)O` [Example 163, N-alpha-[(S)-4-Carboxy-4-(19-carboxynonadecanoylamino)butyryl]-Glu-Arg-[Glu1,Glu14,Arg17,Gln21,Gln31,Gln35,Pro37]-pramlintide] ({C20 diacid-γGlu}-ERECNTATCATQRLAEFLRHSSQNFGPILPPTQVGSQTP-NH2; disulfide 4-9), for which the “ThT pH 4.0 lag time” value in series [1] (Table 8), in series [1] (Table 9) and in series [1] (ThT fibrillation assay) was over 45 h each time. In series [1] (ThT fibrillation assay), the “ThT pH 4.0 lag time (h)” value is recorded as over 45 h. The EC50 in series [2] (Table 11, read-out: CTa receptor human EC50) stood at 3.71 nM; in series [3], 1.06 nM. The solubility at 18 h in series [4] (setting [6]) is over 200 µM; in series [4] (setting [7]), over 200 µM; in series [4] (setting [15]), over 200 µM; in series [4] (bistrispropane buffer, pH 7, pH 7.0, Table 8, read-out: Solubility pH 7.0), over 200 µM; in series [4] (bistrispropane buffer, pH 7, pH 7.0, Table 9, read-out: Solubility pH 7.0), over 200 µM; in series [4] (setting [8]), over 200 µM. Moreover, the solubility at 18 h in series [4] (bistrispropane buffer, pH 7.5, pH 7.5, Table 9, read-out: Solubility pH 7.5) was over 200 µM; in series [4] (setting [9]), over 200 µM; in series [4] (setting [10]) it was over 200 µM; in series [4] (setting [11]) it was over 200 µM; in series [4] (setting [12]), over 200 µM; in series [4] (setting [13]), over 200 µM. Further, the solubility at 18 h in series [4] (setting [14]) was over 200 µM.
